In ChEMBL document CHEMBL1201862, “PubChem BioAssay data set” (2004):
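Results reflect a 48-hour exposure of cells in 96-well plates to compound at five concentrations. The concentration for 50% growth inhibition is given as GI50.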 Calls of active or inactive are those of the source. Rule as the data show it: active = GI50 up to about 1.1 µM and inactive = higher.

Experiments:
Test in all cases: NCI-60 cell line screen, 48 h
SF-539 = test system: SF-539
RXF 393 = test system: RXF 393
MCF7 = test system: MCF7
MDA-MB-231 = test system: MDA-MB-231
OVCAR-4 = test system: OVCAR-4
NCI-H23 = test system: NCI-H23
SNB-75 = test system: SNB-75
RPMI-8226 = test system: RPMI-8226
HCT-15 = test system: HCT-15
CCRF-CEM = test system: CCRF-CEM
DU-145 = test system: DU-145
A549 = test system: A549
PC-3 = test system: PC-3
OVCAR-3 = test system: OVCAR-3
IGROV-1 = test system: IGROV-1
HOP-92 = test system: HOP-92
OVCAR-5 = test system: OVCAR-5
T47D = test system: T47D
SF-295 = test system: SF-295
HCT-116 = test system: HCT-116
HCC 2998 = test system: HCC 2998
Hs-578T = test system: Hs-578T
SF-268 = test system: SF-268
SK-OV-3 = test system: SK-OV-3
SN12C = test system: SN12C
SK-MEL-28 = test system: SK-MEL-28
M14 = test system: M14
786-0 = test system: 786-0
OVCAR-8 = test system: OVCAR-8
U-251 = test system: U-251
SK-MEL-2 = test system: SK-MEL-2
ACHN = test system: ACHN
HOP-62 = test system: HOP-62
SW-620 = test system: SW-620
COLO 205 = test system: COLO 205
HL-60 = test system: HL-60
KM12 = test system: KM12
CAKI-1 = test system: CAKI-1
NCI-H460 = test system: NCI-H460
UACC-257 = test system: UACC-257
MOLT-4 = test system: MOLT-4
SK-MEL-5 = test system: SK-MEL-5
Malme-3M = test system: Malme-3M
NCI-H522 = test system: NCI-H522
MDA-MB-435 = test system: MDA-MB-435
K562 = test system: K562
EKVX = test system: EKVX
NCI-H226 = test system: NCI-H226
NCI/ADR-RES = test system: NCI/ADR-RES
UACC-62 = test system: UACC-62
HT-29 = test system: HT-29
UO-31 = test system: UO-31
LOX IMVI = test system: LOX IMVI
TK-10 = test system: TK-10
SNB-19 = test system: SNB-19

SMILES: Nc1ncc(Cc2nc3ccccc3s2)s1
- GI50 (SF-539): > 100 µM (inactive)
- GI50 (RXF 393): > 100 µM (inactive)
- GI50 (MCF7): 35.6 µM (inactive)
- GI50 (MDA-MB-231): 69.8 µM (inactive)
- GI50 (OVCAR-4): > 100 µM (inactive)
- GI50 (NCI-H23): > 10 µM (inactive)
- GI50 (SNB-75): > 100 µM (inactive)
- GI50 (RPMI-8226): 18.5 µM (inactive)
- GI50 (HCT-15): > 100 µM
- GI50 (CCRF-CEM): 30.3 µM (inactive)
- GI50 (DU-145): > 100 µM (inactive)
- GI50 (A549): 69.8 µM (inactive)
- GI50 (PC-3): 63.5 µM (inactive)
- GI50 (OVCAR-3): 47.3 µM (inactive)
- GI50 (IGROV-1): 63.8 µM (inactive)
- GI50 (HOP-92): 68.4 µM (inactive)
- GI50 (OVCAR-5): > 100 µM (inactive)
- GI50 (T47D): 48.6 µM (inactive)
- GI50 (SF-295): 40.9 µM (inactive)
- GI50 (HCT-116): 52.1 µM (inactive)
- GI50 (HCC 2998): > 100 µM (inactive)
- GI50 (Hs-578T): 15.1 µM (inactive)
- GI50 (SF-268): > 100 µM (inactive)
- GI50 (SK-OV-3): > 100 µM (inactive)
- GI50 (SN12C): > 100 µM (inactive)
- GI50 (SK-MEL-28): > 100 µM (inactive)
- GI50 (M14): 42.3 µM (inactive)
- GI50 (786-0): > 100 µM (inactive)
- GI50 (OVCAR-8): 57.3 µM (inactive)
- GI50 (U-251): 90.4 µM (inactive)
- GI50 (SK-MEL-2): > 100 µM (inactive)
- GI50 (ACHN): 54.5 µM (inactive)
- GI50 (HOP-62): > 100 µM (inactive)
- GI50 (SW-620): > 100 µM (inactive)
- GI50 (COLO 205): 34.4 µM (inactive)
- GI50 (HL-60): > 100 µM (inactive)
- GI50 (KM12): 56.4 µM (inactive)
- GI50 (CAKI-1): 53.3 µM (inactive)
- GI50 (NCI-H460): 73.6 µM (inactive)
- GI50 (UACC-257): 76.7 µM (inactive)
- GI50 (MOLT-4): > 100 µM (inactive)
- GI50 (SK-MEL-5): 28.6 µM (inactive)
- GI50 (Malme-3M): 68.9 µM (inactive)
- GI50 (NCI-H522): 53.1 µM (inactive)
- GI50 (MDA-MB-435): 39.2 µM (inactive)
- GI50 (K562): 56.4 µM (inactive)
- GI50 (EKVX): 30 µM (inactive)
- GI50 (NCI-H226): 24.6 µM (inactive)
- GI50 (NCI/ADR-RES): 91.6 µM (inactive)
- GI50 (UACC-62): 54 µM (inactive)
- GI50 (HT-29): 29.3 µM (inactive)
- GI50 (UO-31): 68.9 µM (inactive)
- GI50 (LOX IMVI): > 100 µM (inactive)
- GI50 (TK-10): 85.5 µM (inactive)
- GI50 (SNB-19): > 100 µM (inactive)
